Test results reported in US20170321282A1, “IMPROVED TREATMENTS OF CANCER RESISTANT TO TAXOIDS” (INSTITUT GUSTAVE ROUSSY, priority 2014, published 2017).

Assays:
[1] = tested on: parental IGR-CaP1 cells; assay: Colony formation (clonogenicity) assay, parental cells; type: cell-based, human; conditions: 25 μM LY2157299 alone, 72 h pretreatment, stained 2 weeks later
Method: (§1) Colony formation assay. Cells were pretreated with 25 μM LY2157299 or vehicle for 72 hours. Then, cells were treated with Docetaxel and/or 25 μM LY2157299, control cells were treated with vehicle. Docetaxel was used at 12 nM in parental IGR-CaP1 and 100 nM in resistant IGR-CaP1-R100. Cells were stained with Crystal Violet 2 weeks later. Data are represented as mean±SD. […] Representative cell colonies obtained in each condition is shown.
(§2) IGR-CaP1 and IGR-CaP1-R cells were plated in 6 well plates for 24 hours. Cells were pre-treated with 25 μM LY2157299 or vehicle for 72 hours, and then co-treated with LY2157299 and docetaxel (12 nM for parental cells, 100 nM for resistant cells). After 2 weeks, clones were methanol fixed and stained using Crystal violet (sigma). Clones were counted using ImageJ software.

[2] = tested on: resistant IGR-CaP1-R100 cells; assay: Colony formation (clonogenicity) assay, docetaxel-resistant cells; type: cell-based, human; conditions: 25 μM LY2157299 alone, 72 h pretreatment, stained 2 weeks later
Method: as §1, §2

[3] = tested on: SHISA3 expression in IGR-CaP1 tumors; assay: SHISA3 mRNA expression by quantitative PCR in docetaxel-sensitive xenograft tumors; type: in vivo, nude athymic mice; conditions: docetaxel vs vehicle
Description: (§3) FIG. 1: Expression of SHISA3 in docetaxel-resistant prostate cancer cells and in other cancers A. Real-time qRT-PCR showing the inhibition of SHISA3 gene expression in docetaxel-resistant IGR-CaP1-R and PC3-R cells. B. Whole cell extracts of parental and drug-resistant cells were subjected to immunoblotting with antibodies specific for SHISA3 or β-actin (loading control). Arrows indicate specific bands corresponding to SHISA3, star indicates a non-specific band. C. […] D-E. SHISA3 mRNA was assessed by determining ΔCt in normal tissues and in several solid tumors. Results were normalized to the universal RNA included in each panel. In D, out of all the tested tissues for SHISA3 expression, only tissues with the highest expression were shown. In E, the bars represent the mean. P value was derived from the two-tailed Student's t test. F. Subcellular localization after transfection of SHISA3-Flag-GFP in HEK cells. Cells were analyzed by confocal microscopy. GFP stained the transfected cells, SHISA3 was labeled with anti-SHISA3 antibody (red) and nucleus was stained with Dapi. […] Secondary antibodies were used as followed: Alexa-568 for SHISA3 and Alexa-647 for Calnexin and GM130. G. SHISA3 mRNA expression was assessed in vivo on nude athymic mice models. […] SHISA3 expression has been obtained by quantitative PCR and normalized by its expression in a control sample of Universal RNA. […]

[4] = tested on: SHISA3 expression in IGR-CaP1-R25 tumors; assay: SHISA3 mRNA expression by quantitative PCR in docetaxel-resistant xenograft tumors; type: in vivo, nude athymic mice; conditions: docetaxel vs vehicle
Description: as §3

[5] = tested on: parental IGR-CaP1 and PC3 cells; assay: EMT induction by TGFβ1, immunoblot of SHISA3 and EMT markers; type: cell-based, human; conditions: 10 ng/ml TGFβ1, 5 days
Description: A. Schematic structure of SHISA3 and SHISA3-Flag sharing a signal peptide (black box), an amino-terminal CRD (blue box), a predicted transmembrane segment (TM), and a carboxy-terminal proline-rich region (Grey box). The position of the FLAG tag (red box) is indicated. B. SHISA3 and endogenous TGFβR2 interaction. Cells extracts from IGR-CaP1, PC3 and HEK cells transfected with SHISA3-Flag were immunoprecipitated with anti-TGFβR2, anti-EGFR, anti-Flag antibodies or IgG as control and analyzed by immunoblot using anti-TGFβR2, anti-EGFR and anti-SHISA3 antibodies. Input represents 10% of the IP. C. Co-localization of SHISA3 and TGFβR2 in cytoplasmic granules and speckles at the membrane. Subcellular localizations of SHISA3 and TGFβR2 were analyzed by confocal microscopy after co-transfection of SHISA3-Flag and HA-TGFβR2 in HEK cells using anti-SHISA3 and anti-TGFβR2 primary antibodies, and Alexa-568- and Alexa-647-conjugated secondary antibodies respectively. Nuclei were labeled with Dapi. Overlapped fluorescent signals (yellow) indicated co-localized proteins. D. SHISA3 and EMT markers expression 5 days after cell treatment with TGFβ1. […] Quantification of bands relative to beta actin is shown.
2,5.10^4 IGR-CaP1 cells and 5.10^4 PC3 cells were plated in 6-well plates for 24 hours then transiently transfected with 10 nM synthetic siRNA targeting SHISA3 gene (Stealth RNAi™, siSHISA3-94: HSS152694, siSHISA3-95: HSS152695, and siSHISA3-96: HSS152696) using lipofectamine RNAiMax (Invitrogen) or treated with 10 ng/ml TGFβ1. After 36 hours, a second treatment was performed in order to maintain EMT induction over 5 days. Negative controls were obtained by treating cells with siRNA negative controls (siNT) (Invitrogen) or TGFβ1 vehicle. Whole cell extracts were prepared in RIPA buffer complemented with proteases inhibitors (Roche) and phosphatase inhibitors (Sigma).
Fifty μg of lysates were used for Western-Blot probed with specific antibodies: SHISA3 (Abgent), E-cadherin (BD Biosciences, clone 36), N-Cadherin (BD Biosciences, Clone 32), β-catenin (Santa Cruz, clone 12F7), Vimentin (BD Pharmingen, clone RV202), Occludin (Life Technologies, Clone OC-3F10), Plakoglobin (Sigma-Aldrich, Clone 15F11), Snail (Cell Signaling, Clone C15D3), ZEB1 (Cell Signaling, D80D), EGFR (Cell Signaling, Clone D38B1), TGFβR2 (Santa Cruz, Clone E-6), Ubiquitin (Santa Cruz, Clone P4D1), Flag (Sigma, M2). β-actin (Sigma-Aldrich, Clone AC-15) was used as a loading control. Immunoblot analyses were performed using the enhanced chemoluminescence-based detection kit (Pierce).

## Cc1cccc(-c2nn3c(c2-c2ccnc4ccc(C(N)=O)cc24)CCC3)n1 [LY2157299]
[1]
  survival of parental cells (colony formation): did not affect the survival
[2]
  survival of resistant cells (colony formation): did not affect the survival

## CC(=O)O[C@@]12CO[C@@H]1C[C@H](O)[C@@]1(C)C(=O)[C@H](O)C3=C(C)[C@@H](OC(=O)[C@H](O)[C@@H](NC(=O)OC(C)(C)C)c4ccccc4)C[C@@](O)([C@@H](OC(=O)c4ccccc4)[C@H]21)C3(C)C [docetaxel]
[3]
  SHISA3 gene expression in tumors: strong decrease
[4]
  SHISA3 gene expression in tumors: did not affect its expression

## TGFβ: TGFβ1 purchased from R&D Systems
[5]
  CDH1 expression: decrease
  CDH2 expression: increase
  VIM expression: increase
[5]; vs control cells
  SHISA3 expression: decrease
